Assay results from article PMC11106675, “Synthesis of 1,4-azaphosphinine nucleosides and evaluation as inhibitors of human cytidine deaminase and APOBEC3A” (Beilstein Journal of Organic Chemistry, 2024).
Like-named read-outs stand apart in the source and are kept apart here. Blank lines part the entries; values can stand above or below the molecule they belong to.

Columns and labels:
[1] = biological target: T1, human cytidine deaminase (hCDA) (Homo sapiens, UniProt P32320); experiment: UV kinetic assay of hCDA-catalysed 2'-deoxycytidine deamination; format: biochemical; details: for Ki: substrate dC, competitive inhibition assumed
T1 construct: purchased Sigma-Aldrich SRP6372; host or cells: E. coli
Experimental: We monitored the hCDA-catalysed deamination of dC at 286 nm and analysed the kinetic profiles at various inhibitor concentrations using a global regression analysis of the kinetic data using Lambert’s W function. This method provides better estimates for the Michaelis–Menten constant (KM) and maximum velocity (Vmax) than nonlinear regression analysis of the initial rate (V0). […] Then, KM for the substrate and Ki for each inhibitor were calculated, assuming competitive nature of the inhibitors (Table 1).
We assumed that protonation of Va might result in some inhibition of hCDA. […] This means that the pH value of the assay should be close to pH 1.5 to see any meaningful effect of partially protonated compound Va, but hCDA would be denatured at this pH value. By lowering the pH value to 6.0, dZ (IIc) started to lose potency against hCDA (Table 1), which might be a result of protonation of the pyrimidine ring in dZ (IIc). […] At this pH value, less than 1 in 1,000 molecules of Va might be protonated, which could mean that protonated acid Va is a potent hCDA inhibitor.
Protein expression and purification
Recombinant human cytidine deaminase (hCDA) expressed in E.Coli was purchased form Sigma-Aldrich, product No SRP6372. […]
UV kinetic assay of hCDA-catalysed 2'-deoxycytidine
UV spectroscopy was used to monitor hCDA-catalysed deamination of 2'-deoxycytidine at 286 nm in 100 mM NaCl, 50 mM phosphate buffer at 25 °C at various pH as mentioned in the text. Cary 300 Bio UV-vis spectrometer from Varian was used. Enzymatic reactions were performed in a q uartz cuvette (0.1 cm). Deamination of 2'-deoxycytidine leads to a decrease in absorption at 286 nm (Figure […]
Figure S10. hCDA (27nM) catalysed deamination of 2'-deoxycitidine (⁓1.5 mM) in the absence (plus) and presence of 5 µM 2'-deoxyzebularine (IIc, asterisk) monitored by measuring absorbance at 286 nm over time in 100 mM NaCl, 1 mM TCEP, 50 mM phosphate buffer at 25 °C, at pH 7.4.
The uninhibited deamination (pluses, Figure S10) and the inhibited reaction start at about the same speed. As the reaction progresses, the inhibited reaction becomes slower, as its observed KM is larger than in the uninhibited case. In order to be able to visualize the fitted curves, only every 5th data point is plotted. The data was then fitted using Gnuplot to the integrated Michaelis Menten equation [10]: […]
(1 picture or pasted object on this page, not shown here) […]
where mm(t) calculates the current substrate concentration with respect to the time, t. The four parameters which are fitted are KM and vmax, the Michaelis-Menten constants, c is the initial substrate concentration and d is a baseline correction parameter. A summary of the measured inhibition […]
An increase in concentration of an inhibitor in enzymatic reaction leads to an increase in the observed KM value. The plot of observed KM values versus inhibitor concentration (Figures S11–S13) was then fitted with linear regression (y = ax + b) to derive the inhibition constant (Ki) using the following […]
Uncertainty of Ki was calculated using error-propagation method.
Figure S11. A plot of observed KM versus various concentration of dZ (IIc) in hCDA (27 nM) catalysed deamination of 2'-deoxycitidine in 100 mM NaCl, 1 mM TCEP, 50 mM phosphate buffer at 25 °C, at pH 7.4. […]

[2] = test system: A3 enzymes; set-up: method as in PMID 30418757; details: as the free nucleoside; cited from earlier work
[3] = Stability in aqueous solution (NMR samples); format: physicochemical; details: for stability in sodium phosphate buffer: pH 7.0, NMR samples, several days
From the text: Catalytic hydrogenation is usually used for the removal of benzyl protecting groups. However, standard hydrogenation conditions using 10% Pd/C led to reduction of the C=C double bond in the nucleobase, providing nucleoside 24 (Scheme 3). To circumvent this problem, we used poisoned Pd catalyst (Lindlar’s catalyst, 5% Pd/CaCO3/3% Pb) and obtained the desired nucleoside 18. Individual anomers of nucleosides 18 and 24 were separated on a C18 column using a gradient of CH3CN in H2O. Removal of toluoyl groups was accomplished in aq NH3, providing pure α- and β-nucleoside of Va and Vc, respectively, carrying a negatively charged phosphinic acid group.

[4] = Estimation of pKa from change of λmax as a function of pH; format: physicochemical; details: estimated from change in λmax as a function of pH
Experimental: Figure S6. UV-vis spectra of compounds Va (A) and Vb (B) at 100 µM in 20 mM phosphate buffer, containing 10 %
Estimation of pKa of nucleoside Va
A change of λmax of nucleoside Va as a function of pH of the solution was plotted (Figure below) and
Figure S7. Change in λmax of nucleoside Va as a function of pH.
(1 picture or pasted object on this page, not shown here)

T1 sequence (P32320 whole entry): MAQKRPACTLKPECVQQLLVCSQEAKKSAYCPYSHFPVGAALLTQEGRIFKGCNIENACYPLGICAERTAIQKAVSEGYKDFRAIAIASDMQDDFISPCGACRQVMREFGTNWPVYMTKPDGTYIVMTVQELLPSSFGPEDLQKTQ

Ki ([1]; pH 4.7, 25 °C, read-out: Ki): 560 ± 100 µM
Ki ([1]; pH 6.0, 25 °C): no inhibition
Ki ([1]; pH 7.4, 25 °C): no inhibition
SMILES: O=C1CP(=O)(O)C=CN1C1CC(O)C(CO)O1 (stereo not drawn) [β-anomer of Va]

stability in sodium phosphate buffer [3]: no decomposition
SMILES: O=C1CP(=O)(O)CCN1C1CC(O)C(CO)O1 (stereo not drawn) [Vc]

Ki ([1]; pH 7.4, 25 °C): lack of inhibition
pKa [4]: ≤ 1.5
stability in sodium phosphate buffer [3]: no decomposition
stability in water ([3]; pH 7.4): excellent stability
SMILES: O=C1CP(=O)(O)C=CN1C1CC(O)C(CO)O1 (stereo not drawn) [Va]

Second part, the molecule before the results:

SMILES: O=c1ncccn1[C@H]1C[C@H](O)[C@@H](CO)O1 [dZ (IIc), 2'-deoxyzebularine, reference compound]
Km/Ki ([1]; pH 6.0): 5.5
Ki ([1]; pH 6.0, 25 °C, read-out: Ki): 49 ± 13 µM
Km/Ki ([1]; pH 7.4): 24
inhibition of A3 enzymes [2]: does not inhibit

SMILES: Nc1ccn([C@H]2C[C@H](O)[C@@H](CO)O2)c(=O)n1 [dC, 2'-deoxycytidine, reference compound]
Km ([1]; pH 7.4, fitted in the experiment with inhibitor dZ (IIc), read-out: Km of dC): 260 ± 40 µM

SMILES: NP1(=O)C=CN(C2CC(O)C(CO)O2)C(=O)C1 (stereo not drawn) [β-anomer of Vb]
Km/Ki ([1]; pH 7.4): 30
Ki ([1]; pH 7.4, 25 °C, read-out: Ki): 8 ± 1.9 µM
